Laboratory results reported in patent US5081116A, “Cephalosporin derivatives” (Yamanouchi Pharmaceutical Co., Ltd., priority 1989, dated 1992).
Converted amounts (≈) assume the structure as drawn. Like-named read-outs stand apart in the source and are kept apart here.

What was measured:
[1] = tested on: CAY 1104; assay: Minimum growth inhibition concentration (antimicrobial activity); type: cell-based; details: Enterobacter Faecalis CAY 1104
Source text: (§1) The antimicrobial activity of the 7-[2-(2-amino-4-thiazolyl)-2-(hydroxyimino)acetamido]-3-(1,3-dithiolan-2-yl)-3-cephem-4-carboxylic acid which is such that A of the compounds of the general formula is the hydrogen atom (Compound of Example 1) is shown in Table 1.
(§2) (Minimum Growth Inhibition Concentration, γ/ml)

[2] = tested on: Escherichia coli 0-1; assay: as above; type: cell-based; details: 01
Source text: as §1, §2

[3] = tested on: Klebsiella pneumoniae ATCC 10031; assay: as above; type: cell-based; details: ATCC10031
Source text: as §1, §2

[4] = tested on: Staphylococcus aureus FDA 209P JC-1; assay: as above; type: cell-based; details: FDA209P
Source text: as §1, §2

[5] = tested on: Staphylococcus epidermidis IID 866; assay: as above; type: cell-based; details: IID866
Source text: as §1, §2

[6] = Absorption rate from the digestive tract (urinary and biliary recovery after oral administration); type: in vivo; details: rat, 50 mg/kg, bioassay
Protocol: Further, the absorption rate of the compound of the general formula (I) wherein A is the 1-acetoxyethyl group (Compound of Example 2) from the digestive tract is shown as follows together with the testing method therefor.
An ether-anesthetized rat was fixed with the belly upside and a polyethylene tube was inserted into the bile-duct. The urine was collected from the same rat. After the test compound was orally administered at 50 mg/kg, urine and bile samples were collected within 0-6 hours and also within 6-24 hours. The amounts recovered in the urine and the bile within 24 hours were determined by measuring the test compound concentrations in the urine and the bile by a bioassay method using the standard solution of the test compound prepared with M/15 phosphate buffer.

| SMILES | MIC [1] | MIC [2] | MIC [3] | MIC [4] | MIC [5] | dose excreted at 24 h ([6]; bile, read-out: Recovery Rate (%) within 24 hours In the Bile) | dose excreted at 24 h ([6]; urine, read-out: Recovery Rate (%) within 24 hours In the Urine) | dose excreted at 24 h ([6]; urine and bile, urine + bile, read-out: Recovery Rate (%) within 24 hours Total) |
| --- | --- | --- | --- | --- | --- | --- | --- | --- |
| Nc1nc(/C(=N/O)C(=O)NC2C(=O)N3C(C(=O)O)=C(C4SCCS4)CS[C@H]23)cs1 (some centres unmarked) [Example 1, (Z)-7-[2-(2-amino-4-thiazolyl)-2-(hydroxyimino)acetamido]-3-(1,3-dithiolan-2-yl)3-cephem-4-carboxylic acid] | 3.13 µg/mL (≈ 6.61 µM) | 0.39 µg/mL (≈ 0.824 µM) | 0.78 µg/mL (≈ 1.65 µM) | 0.39 µg/mL (≈ 0.824 µM) | 0.39 µg/mL (≈ 0.824 µM) | – | – | – |
| CC(=O)OC(C)OC(=O)C1=C(C2SCCS2)CS[C@@H]2C(NC(=O)/C(=N\O)c3csc(N)n3)C(=O)N12 (some centres unmarked) [Example 2, 1-acetoxyethyl (Z)-7-[2-(2-amino-4-thiazolyl)-2-(hydroxyimino)acetamido]-3-(1,3-dithiolan-2-yl)-3-cephem-4-carboxylate] | – | – | – | – | – | 8.5% | 14.1% | 22.6% |
